Test results: patent US20260176270A1 (Exelixis, Inc., priority 2022, published 2026)
Read-outs that look alike come from different tables or passages of the source.

Columns and labels:
[1] = test system: phosphorylation of CDK1 at Thr14 in HCC1806 cells; test: Cell lysate AlphaLISA assay measuring inhibition of phosphorylation of CDK1 Thr14; assay type: cell-based; conditions: read-out: Cellular IC50
In short: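 HCC1806 cells seeded overnight, then treated 4 h at 37 °C, 5% CO2 with compounds in DMSO; washed and lysed, lysates frozen overnight at −80 °C. CDK1 Thr14 phosphorylation read by AlphaLISA SureFire Ultra; data normalized to DMSO (0% inhibition) and 3 μM reference compound to give IC50.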

PKMYT1 = molecular target: T1, PKMYT1 (Homo sapiens, UniProt Q99640); test: ADP-Glo PKMYT1 ATP-depletion assay; conditions: 50 nM PKMYT1, 13.3 nM CDK1, read-out: Biochemical IC50
T1 construct: PKMYT1 (93 kD, full length, N-terminal GST tag from Signal Chem); GST (N); purchased Signal Chem
T1 sequence (Q99640 1-499): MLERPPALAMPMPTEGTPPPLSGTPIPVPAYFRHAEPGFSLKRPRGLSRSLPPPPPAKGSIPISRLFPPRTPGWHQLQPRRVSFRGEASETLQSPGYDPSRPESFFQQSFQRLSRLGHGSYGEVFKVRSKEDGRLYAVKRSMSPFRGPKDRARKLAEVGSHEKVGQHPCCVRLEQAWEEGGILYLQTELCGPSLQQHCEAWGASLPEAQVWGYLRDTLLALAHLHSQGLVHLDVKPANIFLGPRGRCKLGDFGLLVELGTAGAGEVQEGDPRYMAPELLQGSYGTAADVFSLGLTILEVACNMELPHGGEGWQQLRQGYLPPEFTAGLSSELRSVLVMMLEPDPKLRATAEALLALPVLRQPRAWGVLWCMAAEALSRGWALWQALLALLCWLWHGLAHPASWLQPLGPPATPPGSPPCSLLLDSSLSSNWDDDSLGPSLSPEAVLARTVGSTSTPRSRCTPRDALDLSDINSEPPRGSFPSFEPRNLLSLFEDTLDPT
In short: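 Full-length N-terminal GST-tagged PKMYT1 (50 nM) with GST-CDK1 (13.3 nM) as substrate and 88 µM ATP, in Hepes buffer with MgCl2, MnCl2, DTT and BSA; DMSO <1%. Incubated 120 min at RT. ADP formed was quantified by ADP-Glo luminescence and used to derive biochemical IC50.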

IC50 ([1]; 4 hours)	IC50 (PKMYT1)	IC50 ([1]; Homo sapiens, HCC1806, 4 h)	Structure (SMILES)
≥ 5000 nM	1000 to 5000 nM		NC(=O)c1cc2nccnc2c(-c2c(Cl)ccc3[nH]ncc23)c1N (atropisomer, axis not shown) [Compound 247]
500 to 1000 nM	50 to 500 nM		COc1cncc(-c2c(N)c(C(N)=O)nc3cccnc23)c1C [Compound 153]
	50 to 500 nM	< 50 nM	COc1ccnc2cc(C(N)=O)c(N)c(-c3cccc(O)c3C)c12 [Compound 333]
	1000 to 5000 nM	≥ 5000 nM	Cc1c(O)cncc1-c1c(N)c(C(N)=O)nc2c1NCCC2 [Compound 334]
	500 to 1000 nM	≥ 5000 nM	Cc1ccc(O)c(C)c1-c1cc(C(N)=O)cc2nccnc12 [Compound 74, 8-(3-Hydroxy-2,6-dimethyl-phenyl)quinoxaline-6-carboxamide]
50 to 500 nM	< 50 nM		Cc1c(O)cccc1-c1c(N)c(C(N)=O)cc2ncc(C(F)(F)F)nc12 [Compound 139]
≥ 5000 nM	500 to 1000 nM		Cc1ccc(O)c(C)c1-c1c(N)c(C(N)=O)cc2cccnc12 (single isomer, unassigned) [Compound 65, (M)-7-Amino-8-(3-hydroxy-2,6-dimethyl-phenyl)quinoline-6-carboxamide]
500 to 1000 nM	50 to 500 nM		NC(=O)c1cc2nccnc2c(-c2c(Cl)ccc3[nH]ncc23)c1N (atropisomer, axis not shown) [Compound 246]
	≥ 5000 nM	≥ 5000 nM	Cc1[nH]nc2cccc(-c3cc(C(N)=O)nc4ccccc34)c12 [Compound 19, 4-(3-Methyl-2H-indazol-4-yl)quinoline-2-carboxamide]
	≥ 5000 nM	≥ 5000 nM	Cc1cccc(C)c1-c1c(N)c(C(N)=O)cc2nccnc12 [Compound 308]
	1000 to 5000 nM	≥ 5000 nM	Cc1c(C#N)cncc1-c1c(N)c(C(N)=O)nc2cccnc12 [Compound 317]
50 to 500 nM	< 50 nM		Cc1c(Cl)cncc1C1=c2ncccc2=NC(C(N)=O)C1N (stereo not drawn) [Compound 240]
≥ 5000 nM	50 to 500 nM		NC(=O)c1nc2cccnc2c(-c2cccc3[nH]nc(F)c23)c1N [Compound 306]
	≥ 5000 nM	≥ 5000 nM	CC1=C(c2c(N)c(C(N)=O)nc3cccnc23)CCCC1=O [Compound 303]
≥ 5000 nM	≥ 5000 nM		Cc1c(O)cccc1-c1c(N)c(C(N)=O)cc2nc(C(F)(F)F)c(O)nc12 (atropisomer, axis not shown) [Compound 136]
1000 to 5000 nM	≥ 5000 nM		Cc1c(O)cccc1-c1c(N)c(C(N)=O)nc2cc(C(F)(F)F)ccc12 [Compound 59, 3-Amino-4-(3-hydroxy-2-methylphenyl)-7-(trifluoromethyl) quinoline-2-carboxamide]
1000 to 5000 nM	50 to 500 nM		Cc1c(O)cccc1-c1c(N)c(C(N)=O)cc2nc(C)c(=O)n(C)c12 [Compound 138]
	500 to 1000 nM	≥ 5000 nM	NC(=O)c1cc2nccnc2c(-c2cccc3cncn23)c1N [Compound 316]
	< 50 nM	50 to 500 nM	Cc1ccc(O)c(C)c1-c1c(N)c(C(N)=O)cc2nccnc12 [Compound 82, 7-Amino-8-(3-hydroxy-2,6-dimethylphenyl)quinoxaline-6-carboxamide]
50 to 500 nM	< 50 nM		NC(=O)c1cc2nccnc2c(-c2cccc(O)c2Cl)c1N (single isomer, unassigned) [Compound 105, (P)-7-Amino-8-(2-chloro-3-hydroxyphenyl)quinoxaline-6-carboxamide]
1000 to 5000 nM	50 to 500 nM		Cc1ccc(O)c(C)c1-c1c(N)c(C(N)=O)nc2ccccc12 [Compound 22, 3-Amino-4-(3-hydroxy-2,6-dimethylphenyl)quinoline-2-carboxamide]
